Data taken from patent US20180092883A1, “PHOSPHATASE INHIBITORS FOR TREATING OCULAR DISEASES” (Aerpio Therapeutics, Inc., priority 2010, published 2018).

Test system: Rhodopsin/VEGF transgenic mice
Assay: Retinal/subretinal neovascularization in rho/VEGF transgenic mice (Study 3; GSA lectin, image analysis)
Type: in vivo, mouse
Conditions: s.c. b.i.d. for 7 days, 3 mg/kg/dose, vs vehicle
Experimental: Thirty (30) Rhodopsin/VEGF transgenic mice having constitutive expression of VEGF in their retinal neurons were divided into three equal groups. At day 14 post natal each group received subcutaneous injections as follows: Group 1 received 10 mg/kg/injection (high dose) of a compound from Table XXI; Group 2 received 3 mg/kg/injection (low dose) of a compound from Table XXI; and Group 3 received injections of vehicle. Each animal received two injections per day for 7 days.
At P21, mice were sacrificed; eyes were harvested and fixed in 10% PBS-buffered formalin for 2 hours at room temperature. […] After 3 washes with PBST, retinas were mounted and imaged by fluorescence microscopy. Areas of retinal neovascularization were assessed using image analysis software (ImagePro Plus 5). […]
Transgenic mice in which the rhodopsin promoter drives expression of VEGF in photoreceptors (rho/VEGF mice) have onset of VEGF expression at P7 and starting at P10 develop sprouts of neovascularization from the deep capillary bed of the retina that grow through the photoreceptor layer and form an extensive network of new vessels in the subretinal space. […] FITC conjugated GSA was used to stain the retinas at room temperature for 2 hours and then the retinas were flat mounted with the photoreceptor side up and examined by fluorescence microscopy. […]

For `COC(=O)N[C@@H](Cc1ccccc1)C(=O)N[C@@H](Cc1ccc(NS(=O)(=O)O)cc1)c1csc(-c2cccs2)n1` [D91], the “neovascular tufts / new blood vessels in the retina at P21 (micrograph FIG. 3B)” value was “marked reduction of neovascular tufts”.
